“And” between values parts separate entries of the source, which are not always exact repeats. Identical values can stand only once. Like-named read-outs stand apart in the source and are kept apart here.
Assays:
PRKACB (PRKAC beta) = PRKACB (PRKAC beta) (Homo sapiens, UniProt P22694); assay: SelectScreen kinase assay; details: for Inhibition at 1 µM (%): PRKACB (PRKAC beta), LanthaScreen Binding
Procedure: (§1) Selectivity profiling assays were performed by the Invitrogen SelectScreen™ Services. […] The concentration of ATP was selected to be equal to the KM, unless indicated otherwise.

CDK2/cyclin A1 = CDK2/cyclin A1 (Homo sapiens, UniProt P24941); assay: SelectScreen kinase assay
Procedure: as §1

RPS6KA3 (RSK2) = RPS6KA3 (RSK2) (Homo sapiens, UniProt P51812); assay: SelectScreen kinase assay
Procedure: as §1

PTK2 (FAK) = PTK2 (FAK) (Homo sapiens, UniProt Q05397); assay: SelectScreen kinase assay
Procedure: as §1

STK32B (YANK2) = STK32B (YANK2) (Homo sapiens, UniProt Q9NY57); assay: SelectScreen kinase assay
Procedure: as §1

PAK7 (KIAA1264) = PAK7 (KIAA1264) (Homo sapiens, UniProt Q9P286); assay: SelectScreen kinase assay
Procedure: as §1

PRKCQ (PKC theta) = PRKCQ (PKC theta) (Homo sapiens, UniProt Q04759); assay: SelectScreen kinase assay; details: 1 h, 1 μM WEL028, 1 h preincubation
Procedure: as §1

[1] = test system: FES^S700C HL-60 neutrophils; assay: Neutrophil oxidative burst assay (NBT); assay type: cell-based, human
PI4KB (PI4K beta) = PI4KB (PI4K beta) (Homo sapiens, UniProt Q9UBF8); assay: SelectScreen kinase assay
Procedure: as §1

ERN2 = ERN2 (Homo sapiens, UniProt Q76MJ5); assay: SelectScreen kinase assay
Procedure: as §1

HIPK3 (YAK1) = HIPK3 (YAK1) (Homo sapiens, UniProt Q9H422); assay: SelectScreen kinase assay
Procedure: as §1

PRKACA (PKA) = PRKACA (PKA) (Homo sapiens, UniProt P17612); assay: SelectScreen kinase assay
Procedure: as §1

TNK1 = molecular target: T1, TNK1 (Homo sapiens, UniProt Q13470); assay: SelectScreen kinase assay
T1 sequence (Q13470 1-666): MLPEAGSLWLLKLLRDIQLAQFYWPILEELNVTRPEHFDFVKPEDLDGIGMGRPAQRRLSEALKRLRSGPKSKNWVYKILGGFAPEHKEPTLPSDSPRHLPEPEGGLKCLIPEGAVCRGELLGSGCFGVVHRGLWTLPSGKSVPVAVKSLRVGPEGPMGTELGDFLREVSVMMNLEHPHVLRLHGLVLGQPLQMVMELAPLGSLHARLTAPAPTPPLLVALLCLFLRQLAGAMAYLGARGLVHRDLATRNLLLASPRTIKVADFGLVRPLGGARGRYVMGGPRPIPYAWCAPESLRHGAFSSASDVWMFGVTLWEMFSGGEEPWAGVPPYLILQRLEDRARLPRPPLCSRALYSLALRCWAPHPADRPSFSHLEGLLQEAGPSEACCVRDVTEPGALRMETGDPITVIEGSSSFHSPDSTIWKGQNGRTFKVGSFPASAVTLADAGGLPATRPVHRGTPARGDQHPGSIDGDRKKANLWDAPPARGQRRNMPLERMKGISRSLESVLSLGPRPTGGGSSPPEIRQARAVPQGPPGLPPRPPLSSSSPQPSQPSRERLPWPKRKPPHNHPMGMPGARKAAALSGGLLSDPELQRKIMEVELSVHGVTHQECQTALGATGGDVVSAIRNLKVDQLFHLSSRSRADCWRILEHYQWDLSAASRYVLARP
Procedure: as §1

LIMK1 = LIMK1 (Homo sapiens, UniProt P53667); assay: SelectScreen kinase assay
Procedure: as §1

NTRK1 (TRKA) = NTRK1 (TRKA) (Homo sapiens, UniProt P04629); assay: SelectScreen kinase assay
Procedure: as §1

MAP4K1 (HPK1) = MAP4K1 (HPK1) (Homo sapiens, UniProt Q92918); assay: SelectScreen kinase assay
Procedure: as §1

WNK3 = WNK3 (Homo sapiens, UniProt Q9BYP7); assay: SelectScreen kinase assay
Procedure: as §1

FES^S700C HL-60 cells = assay: CD11b surface expression, PMA-induced macrophage differentiation; assay type: cell-based, human; details: for CD11b-positive cells (%): Figure 6d, S700C
[2] = 1 h, 1 μM WEL028, 1 h preincubation
[3] = 1 µM, ZLYTE, ATP Km app, listed as WEL028, 1 µM
[4] = read-out: Inhibition at 1 µM (%), 1 µM, ZLYTE, ATP Km app
[5] = 1 µM, LanthaScreen Binding, listed as WEL028, 1 µM
[6] = read-out: Inhibition at 1 µM (%)

Chain of PI4KB (PI4K beta) (Q9UBF8 whole entry): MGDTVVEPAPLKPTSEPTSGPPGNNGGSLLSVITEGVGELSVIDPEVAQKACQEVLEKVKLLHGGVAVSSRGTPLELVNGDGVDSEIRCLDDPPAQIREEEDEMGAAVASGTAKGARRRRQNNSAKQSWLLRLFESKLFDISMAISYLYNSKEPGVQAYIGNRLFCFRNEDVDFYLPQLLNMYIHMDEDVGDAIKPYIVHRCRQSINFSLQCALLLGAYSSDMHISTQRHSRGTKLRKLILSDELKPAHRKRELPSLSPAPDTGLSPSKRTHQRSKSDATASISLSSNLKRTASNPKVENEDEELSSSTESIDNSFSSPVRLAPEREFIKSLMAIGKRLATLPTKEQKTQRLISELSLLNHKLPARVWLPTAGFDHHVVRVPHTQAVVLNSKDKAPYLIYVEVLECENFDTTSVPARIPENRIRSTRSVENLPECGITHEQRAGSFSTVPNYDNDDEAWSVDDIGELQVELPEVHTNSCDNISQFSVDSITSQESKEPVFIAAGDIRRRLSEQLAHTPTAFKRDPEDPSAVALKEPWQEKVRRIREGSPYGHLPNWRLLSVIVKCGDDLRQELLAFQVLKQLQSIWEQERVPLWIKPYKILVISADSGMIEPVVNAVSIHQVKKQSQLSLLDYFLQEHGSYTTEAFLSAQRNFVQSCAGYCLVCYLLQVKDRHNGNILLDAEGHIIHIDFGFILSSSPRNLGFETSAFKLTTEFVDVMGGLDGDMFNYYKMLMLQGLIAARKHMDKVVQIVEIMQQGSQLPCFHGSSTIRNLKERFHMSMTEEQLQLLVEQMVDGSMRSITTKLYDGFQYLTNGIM
Chain of WNK3 (Q9BYP7 whole entry): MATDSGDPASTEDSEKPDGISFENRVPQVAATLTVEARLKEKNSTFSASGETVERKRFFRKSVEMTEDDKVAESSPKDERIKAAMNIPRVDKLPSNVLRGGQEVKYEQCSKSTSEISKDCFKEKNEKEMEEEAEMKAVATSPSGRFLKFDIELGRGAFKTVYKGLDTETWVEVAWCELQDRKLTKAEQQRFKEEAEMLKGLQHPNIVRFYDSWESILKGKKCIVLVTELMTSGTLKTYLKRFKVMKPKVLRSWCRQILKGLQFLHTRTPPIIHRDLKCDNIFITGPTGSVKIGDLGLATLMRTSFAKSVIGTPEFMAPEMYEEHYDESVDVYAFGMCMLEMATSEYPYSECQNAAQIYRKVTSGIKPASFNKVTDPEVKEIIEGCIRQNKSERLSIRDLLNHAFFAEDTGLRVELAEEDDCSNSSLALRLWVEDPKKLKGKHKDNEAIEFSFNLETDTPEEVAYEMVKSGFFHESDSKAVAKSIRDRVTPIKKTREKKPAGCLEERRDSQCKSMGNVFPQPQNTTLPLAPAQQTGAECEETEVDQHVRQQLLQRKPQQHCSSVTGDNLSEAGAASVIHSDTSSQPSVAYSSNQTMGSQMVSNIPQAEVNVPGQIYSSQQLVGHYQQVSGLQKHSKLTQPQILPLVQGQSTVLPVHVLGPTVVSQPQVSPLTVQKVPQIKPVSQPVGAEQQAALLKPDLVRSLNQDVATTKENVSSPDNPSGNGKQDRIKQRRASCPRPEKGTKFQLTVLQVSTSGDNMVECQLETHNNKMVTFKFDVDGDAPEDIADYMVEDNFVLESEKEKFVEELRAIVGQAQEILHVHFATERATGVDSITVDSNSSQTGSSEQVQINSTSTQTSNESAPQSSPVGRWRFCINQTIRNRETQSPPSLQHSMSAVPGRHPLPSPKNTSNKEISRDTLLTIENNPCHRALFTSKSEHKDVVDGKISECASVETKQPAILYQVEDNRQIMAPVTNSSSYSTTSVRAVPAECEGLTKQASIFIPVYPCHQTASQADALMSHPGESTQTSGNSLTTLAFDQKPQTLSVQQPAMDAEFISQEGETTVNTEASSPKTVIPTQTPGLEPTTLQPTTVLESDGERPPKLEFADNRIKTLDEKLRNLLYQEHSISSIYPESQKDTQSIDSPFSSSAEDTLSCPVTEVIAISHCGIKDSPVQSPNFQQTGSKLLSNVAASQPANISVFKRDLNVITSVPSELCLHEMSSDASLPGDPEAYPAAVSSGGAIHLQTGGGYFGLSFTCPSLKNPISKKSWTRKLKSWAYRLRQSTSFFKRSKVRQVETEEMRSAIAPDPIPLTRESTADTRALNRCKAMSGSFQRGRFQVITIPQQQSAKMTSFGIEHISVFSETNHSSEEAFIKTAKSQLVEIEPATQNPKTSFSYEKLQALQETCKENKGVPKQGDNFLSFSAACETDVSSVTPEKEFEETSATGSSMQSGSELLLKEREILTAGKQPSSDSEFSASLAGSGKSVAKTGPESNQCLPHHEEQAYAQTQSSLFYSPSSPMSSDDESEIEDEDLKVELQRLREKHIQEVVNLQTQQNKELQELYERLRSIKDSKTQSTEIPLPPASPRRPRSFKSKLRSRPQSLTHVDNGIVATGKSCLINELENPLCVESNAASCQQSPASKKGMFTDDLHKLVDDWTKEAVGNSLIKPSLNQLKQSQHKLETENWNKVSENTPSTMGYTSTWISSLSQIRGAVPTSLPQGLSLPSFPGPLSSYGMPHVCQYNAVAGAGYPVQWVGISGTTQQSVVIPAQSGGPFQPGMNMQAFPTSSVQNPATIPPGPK
Chain of PTK2 (FAK) (Q05397 whole entry, species assumed): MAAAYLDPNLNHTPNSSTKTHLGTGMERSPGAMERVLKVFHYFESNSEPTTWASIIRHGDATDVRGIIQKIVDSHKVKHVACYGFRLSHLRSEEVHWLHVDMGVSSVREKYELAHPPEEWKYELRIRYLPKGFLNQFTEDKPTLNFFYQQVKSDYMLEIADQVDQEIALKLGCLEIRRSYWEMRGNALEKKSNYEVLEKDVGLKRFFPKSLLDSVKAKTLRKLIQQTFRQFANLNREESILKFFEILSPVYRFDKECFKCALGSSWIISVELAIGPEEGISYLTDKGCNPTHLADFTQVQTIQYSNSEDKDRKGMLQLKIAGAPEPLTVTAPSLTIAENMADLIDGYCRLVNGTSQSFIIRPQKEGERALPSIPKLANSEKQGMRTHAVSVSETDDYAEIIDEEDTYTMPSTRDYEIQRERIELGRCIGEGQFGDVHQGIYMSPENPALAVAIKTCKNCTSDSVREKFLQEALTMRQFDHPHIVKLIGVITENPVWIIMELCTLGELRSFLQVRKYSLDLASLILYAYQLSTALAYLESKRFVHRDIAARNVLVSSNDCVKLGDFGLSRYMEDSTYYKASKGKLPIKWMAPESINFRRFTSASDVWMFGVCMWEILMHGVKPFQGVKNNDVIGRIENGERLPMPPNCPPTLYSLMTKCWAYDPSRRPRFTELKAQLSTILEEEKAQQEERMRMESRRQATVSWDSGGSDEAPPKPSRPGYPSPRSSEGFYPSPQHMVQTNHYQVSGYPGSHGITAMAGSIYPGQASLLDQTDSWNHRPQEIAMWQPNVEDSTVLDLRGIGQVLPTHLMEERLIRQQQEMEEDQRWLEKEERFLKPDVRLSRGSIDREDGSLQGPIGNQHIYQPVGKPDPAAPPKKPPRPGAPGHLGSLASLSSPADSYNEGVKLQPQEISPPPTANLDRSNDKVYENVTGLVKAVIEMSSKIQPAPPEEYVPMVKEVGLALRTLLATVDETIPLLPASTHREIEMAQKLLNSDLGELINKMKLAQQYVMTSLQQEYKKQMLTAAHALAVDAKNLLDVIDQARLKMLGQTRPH
Chain of RPS6KA3 (RSK2) (P51812 whole entry): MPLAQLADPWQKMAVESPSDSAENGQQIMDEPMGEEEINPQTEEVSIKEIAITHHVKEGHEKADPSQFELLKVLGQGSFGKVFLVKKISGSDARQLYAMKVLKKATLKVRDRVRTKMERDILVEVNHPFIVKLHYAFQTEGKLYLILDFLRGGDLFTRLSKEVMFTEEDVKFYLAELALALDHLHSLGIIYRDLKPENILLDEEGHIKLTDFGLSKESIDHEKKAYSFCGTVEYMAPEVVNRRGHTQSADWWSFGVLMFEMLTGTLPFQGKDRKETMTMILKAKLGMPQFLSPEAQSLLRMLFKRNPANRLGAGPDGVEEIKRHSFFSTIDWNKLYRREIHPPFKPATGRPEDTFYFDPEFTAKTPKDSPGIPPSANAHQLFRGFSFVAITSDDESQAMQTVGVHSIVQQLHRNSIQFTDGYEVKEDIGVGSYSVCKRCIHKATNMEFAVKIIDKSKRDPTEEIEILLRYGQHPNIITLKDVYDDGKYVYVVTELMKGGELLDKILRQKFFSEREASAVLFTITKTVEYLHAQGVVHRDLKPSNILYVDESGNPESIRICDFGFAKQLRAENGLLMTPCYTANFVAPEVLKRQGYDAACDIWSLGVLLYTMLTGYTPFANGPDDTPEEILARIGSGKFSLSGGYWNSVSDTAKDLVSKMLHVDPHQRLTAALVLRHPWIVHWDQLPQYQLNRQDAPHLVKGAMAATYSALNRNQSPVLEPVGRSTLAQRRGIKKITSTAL
Chain of PAK7 (KIAA1264) (Q9P286 whole entry): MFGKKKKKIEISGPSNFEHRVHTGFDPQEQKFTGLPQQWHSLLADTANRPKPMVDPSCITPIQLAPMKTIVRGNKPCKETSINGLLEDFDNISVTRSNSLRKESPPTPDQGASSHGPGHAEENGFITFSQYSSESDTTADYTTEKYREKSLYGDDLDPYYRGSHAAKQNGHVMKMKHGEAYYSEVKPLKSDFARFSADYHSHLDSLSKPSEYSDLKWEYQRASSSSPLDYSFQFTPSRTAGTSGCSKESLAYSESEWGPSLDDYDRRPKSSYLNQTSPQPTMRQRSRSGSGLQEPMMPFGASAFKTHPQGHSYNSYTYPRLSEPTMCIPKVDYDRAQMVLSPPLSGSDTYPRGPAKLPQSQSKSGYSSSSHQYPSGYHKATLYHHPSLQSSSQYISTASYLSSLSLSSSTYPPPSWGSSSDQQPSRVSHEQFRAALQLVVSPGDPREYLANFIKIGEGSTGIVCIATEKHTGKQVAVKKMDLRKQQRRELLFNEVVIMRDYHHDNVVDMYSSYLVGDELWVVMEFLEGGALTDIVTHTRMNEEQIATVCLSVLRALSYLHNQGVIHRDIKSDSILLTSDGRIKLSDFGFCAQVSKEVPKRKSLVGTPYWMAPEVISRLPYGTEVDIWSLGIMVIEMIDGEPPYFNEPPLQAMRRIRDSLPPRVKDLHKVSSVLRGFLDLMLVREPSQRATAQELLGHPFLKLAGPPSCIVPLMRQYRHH

C#CCOc1ccc(Nc2ncc(Cl)c(Nc3ccccc3NC(=O)C=C)n2)c(OC)c1 [Compound 6]
inhibition at 1 µM (PRKACB (PRKAC beta); [2]): 8% | Inhibition at 1 µM (%) (PRKACB (PRKAC beta)): 12% | Inhibition at 1 µM (%) (PRKACB (PRKAC beta); listed as WEL028, 1 µM): 5% | Inhibition (%) (CDK2/cyclin A1; 1 μM WEL028, 1 h preincubation): 5% | Inhibition at 1 µM (%) (CDK2/cyclin A1; CDK2/cyclin A1, 1 µM, LanthaScreen Binding, listed as WEL028, 1 µM): 7% | inhibition at 1 µM (CDK2/cyclin A1; read-out: Inhibition at 1 µM (%), CDK2/cyclin A1, 1 µM, LanthaScreen Binding): 4% | Inhibition at 1 µM (%) (RPS6KA3 (RSK2); [3]): 12% | inhibition at 1 µM (RPS6KA3 (RSK2); [2]): 13% | inhibition at 1 µM (RPS6KA3 (RSK2); [4]): 13% | IC50 (PTK2 (FAK)): 398 nM | Inhibition at 1 µM (%) (PTK2 (FAK); [3]): 79% | inhibition at 10 µM (PTK2 (FAK); 1 h, log[inhibitor] (M) -5.00, ZLYTE, ATP Km app): 90% | inhibition at 3.31 µM (PTK2 (FAK); 1 h, log[inhibitor] (M) -5.48, ZLYTE, ATP Km app): 88% | inhibition at 1.12 µM (PTK2 (FAK); 1 h, log[inhibitor] (M) -5.95, ZLYTE, ATP Km app): 78% | inhibition at 0.372 µM (PTK2 (FAK); 1 h, log[inhibitor] (M) -6.43, ZLYTE, ATP Km app): 46% | inhibition at 0.123 µM (PTK2 (FAK); 1 h, log[inhibitor] (M) -6.91, ZLYTE, ATP Km app): 26% | inhibition at 0.0138 µM (PTK2 (FAK); 1 h, log[inhibitor] (M) -7.86, ZLYTE, ATP Km app): 4% | inhibition at 0.00151 µM (PTK2 (FAK); 1 h, log[inhibitor] (M) -8.82, ZLYTE, ATP Km app): 4% | Apparent fold selectivity (PTK2 (FAK); IC50 on that kinase divided by IC50 on FES^S700C): 89 fold | inhibition at 1 µM (PTK2 (FAK); [4]): 77% | Inhibition at 1 µM (%) (STK32B (YANK2); [5]): 6% | inhibition at 1 µM (STK32B (YANK2); [2]): 7% | inhibition at 1 µM (STK32B (YANK2); read-out: Inhibition at 1 µM (%), 1 µM, LanthaScreen Binding): 7% | inhibition at 1 µM (PAK7 (KIAA1264); [2]): 12% | Inhibition at 1 µM (%) (PAK7 (KIAA1264); PAK7 (KIAA1264), 1 µM, ZLYTE, ATP Km app, listed as WEL028, 1 µM): 15% | inhibition at 1 µM (PAK7 (KIAA1264); read-out: Inhibition at 1 µM (%), PAK7 (KIAA1264), 1 µM, ZLYTE, ATP Km app): 10% | inhibition at 1 µM (PRKCQ (PKC theta)): 8% | Formazan-positive cells (%) ([1]; 100 nM, Supplementary Figure 12f, individual replicates, listed as WEL028): 79.976% and 78.7671% and 73.0614% | Percentage of formazan-positive cells ([1]; WEL028 prior to PMA stimulation): did not affect | inhibition at 1 µM (PI4KB (PI4K beta); [2]): 34% | Inhibition at 1 µM (%) (PI4KB (PI4K beta); PI4KB (PI4K beta), 1 µM, Adapta, ATP Km app, listed as WEL028, 1 µM): 37% | inhibition at 1 µM (PI4KB (PI4K beta); read-out: Inhibition at 1 µM (%), PI4KB (PI4K beta), 1 µM, Adapta, ATP Km app): 30% | inhibition at 1 µM (ERN2; 1 h): -1% | inhibition at 1 µM (ERN2; [6]): -1% | inhibition at 1 µM (HIPK3 (YAK1); [2]): -3% | Inhibition at 1 µM (%) (HIPK3 (YAK1); HIPK3 (YAK1), 1 µM, ZLYTE, ATP Km app): -11% | inhibition at 1 µM (PRKACA (PKA); [2]): 2% | Inhibition at 1 µM (%) (PRKACA (PKA); PRKACA (PKA), 1 µM, ZLYTE, ATP Km app, listed as WEL028, 1 µM): 4% and -1% | Inhibition at 1 µM (%) (TNK1; 1 µM, ZLYTE, ATP Km app): 41% | inhibition at 1 µM (TNK1; 1 h): 41% | inhibition at 1 µM (TNK1; [6]): 41% | inhibition at 1 µM (LIMK1; [2]): 14% | Inhibition at 1 µM (%) (LIMK1; LIMK1, 1 µM, LanthaScreen Binding, listed as WEL028, 1 µM): 12% | inhibition at 1 µM (LIMK1; read-out: Inhibition at 1 µM (%), LIMK1, 1 µM, LanthaScreen Binding): 16% | inhibition at 1 µM (NTRK1 (TRKA); [2]): 17% | Inhibition at 1 µM (%) (NTRK1 (TRKA); NTRK1 (TRKA), 1 µM, ZLYTE, ATP Km app, listed as WEL028, 1 µM): 16% | inhibition at 1 µM (NTRK1 (TRKA); read-out: Inhibition at 1 µM (%), NTRK1 (TRKA), 1 µM, ZLYTE, ATP Km app): 17% | inhibition at 1 µM (MAP4K1 (HPK1); [2]): 17% | inhibition at 1 µM (MAP4K1 (HPK1); read-out: Inhibition at 1 µM (%), MAP4K1 (HPK1), 1 µM, LanthaScreen Binding): 16% | Inhibition at 1 µM (%) (WNK3; [5]): 5% and 1% | inhibition at 1 µM (WNK3; [2]): 3% | Increase in CD11b expression (FES^S700C HL-60 cells; 100 nM WEL028): 3% | Percentage of CD11b-positive cells (FES^S700C HL-60 cells; 100 nM WEL028): minimally affected | CD11b expression (FES^S700C HL-60 cells; 1 µM WEL028): completely failed to express CD11b | CD11b-positive cells (%) (FES^S700C HL-60 cells; WEL028 100 nM): 93.479% and 95.735% and 92.126% | CD11b-positive cells (%) (FES^S700C HL-60 cells; WEL028 1 µM): 19.047% and 18.635% and 20.613%
